In US9303021B2, “Methods for treating cognitive disorders using 3-aryl-3-hydroxy-2-amino-propionic acid amides, 3-heteroaryl-3-hydroxy-2-amino-propionic acid amides and related compounds” (Allergan, Inc., priority 2007, dated 2016):

Assays:
C57B/6 male mice = assay: Passive (inhibitory) avoidance task; format: in vivo; settings: for Training latency Day 0 (latency to enter the dark/shock compartment): Day 0 is pre-treatment, N = 6/group; for Training latency Day 0 (latency to enter the dark/shock compartment) / Testing latency Day 1 (latency to enter the dark/shock compartment) / Testing latency Day 4 (latency to enter the dark/shock compartment) / Testing latency Day 7 (latency to enter the dark/shock compartment): in s; for Testing latency Day 1 (latency to enter the dark/shock compartment) / Testing latency Day 4 (latency to enter the dark/shock compartment) / Testing latency Day 7 (latency to enter the dark/shock compartment): max trial 180 sec; for memory for the shock-associated environment: IP post-training injections, young mice, versus vehicle
Description: (§1) The passive avoidance task exploits the tendency for rodents to avoid environments previously associated with an aversive stimulus (e.g. shock) and is therefore a reliable measure of emotional memory. The Morris water maze (MWM) task, a test of spatial learning and memory, requires that the animal learns the spatial locations of various extra-maze cues in order to accurately locate an escape platform that is hidden beneath the surface of the water in a water tank.
Table 2, below, indicates the effects of compounds of the invention in a passive avoidance task (latency to enter the dark/shock compartment as dependent variable). Data were analyzed with One-Way ANOVAs followed by Bonferroni-corrected post-hoc measures (required P value dependent upon number of comparisons). The table below includes data from Vehicle-treated mice and mice treated with Compound A and Compound B.
All treatments were administered IP immediately post-training.
Passive Inhibitory Avoidance
C57B/6 male mice (20-25 g; n=6-8/group) were used in this study.
One Day 0, animals were individually placed in the bright side of a 2-chambered inhibitory avoidance box. Mice were given 35 seconds to acclimate after which a door between the two compartments was lifted and the animals were allowed to cross over into the dark compartment. Once they crossed over, the gate would close and the animal would receive a mild (0.15 mA, 2 sec) footshock. Memory retention for the shock-associated environment was evaluated 24 hours (Day 1), 4 (Day 4) and 7 (Day 7) days later. On each of the three memory retention tests (Days 1, 4, and 7), the mouse was given 15 seconds to acclimate before the gate was lifted. Latency to enter the dark (shock) compartment was measured and considered an index of passive fear avoidance. Maximum trial length=180 sec.

aged rats = assay: Morris water maze task; format: in vivo
Description: as §1
Table 3, below, indicates the effects of Compound C in the Morris water maze task (mean escape latencies across testing days are shown).
Data were analyzed with a Mann-Whitney U Test. Mean escape latency indicates the group mean over three sessions to escape onto the hidden platform. Data are shown for days 7-11 (the water maze training days); animals were dosed twice daily (PO) with 10 mg/kg Compound No. 1 or vehicle (as indicated) on Days 1-6 prior to water maze training.
The Morris Maze consisted of a circular water tank (150 cm in diameter) filled with water and maintained at 27° C. with an escape platform (15 cm in diameter) 18 cm from the perimeter always in the same position 2 cm beneath the surface of the water. The water was made opaque by addition of a non-toxic coloring agent rendering the platform invisible. The testing was performed under light of moderate intensity.
The animals were given 5 training sessions over 5 consecutive days. Each training session consisted of 3 consecutive trials in the Morris Maze separated by 120 seconds. For each trial the animal was placed in the maze at one of two starting points equidistant from the escape platform and allowed to find the escape platform. The animal was left on the escape platform for 60 seconds followed by a 60-second rest in an individual cage before starting a new trial. […] During the 3 trials the animals started the maze from the different starting points in a randomly determined order per animal.
The trials were video-recorded and the behavior of the animals was analyzed using a video-tracking system (Panlab: Smart). The principal measure taken was the escape latency (time to find the hidden platform) at each trial. Additional measures (path length (distance traveled to find the hidden platform) and average speed) were also measured.
Aged animals show amnesia in this task as indicated by a lower capacity to reduce their escape latencies from trial to trial.
15 aged rats were studied per group. The experiment also included a young control group. The test was performed blind.
Compound C was evaluated at the dose of 10 mg/kg, administered p.o., and compared with a vehicle control group. The animals received the assigned treatment twice daily for 6 days prior to water-maze training. Twice daily administration continued during training, with one administration 60 minutes before each training session and the second administration between either 8.30-9.30 am or 4:30-5:30 pm, whichever was furthest from the training session for that particular animal.
The experiment therefore included 3 groups.
Data were analyzed by comparing treated groups with aged control using Mann Whitney U tests. In addition, the data were submitted to a two-factor analysis of variance (with age and session as factors, with repeated measures for session).

[1] = 1 mg/kg IP given immediately post-training
[2] = 1 mg/kg IP immediately post-training
[3] = 10 mg/kg IP given immediately post-training
[4] = 10 mg/kg IP immediately post-training

SMILES | Training latency Day 0 (latency to enter the dark/shock compartment) (C57B/6 male mice; [1]) | Testing latency Day 1 (latency to enter the dark/shock compartment) (C57B/6 male mice; [2]) | Testing latency Day 4 (latency to enter the dark/shock compartment) (C57B/6 male mice; [2]) | Testing latency Day 7 (latency to enter the dark/shock compartment) (C57B/6 male mice; [2]) | Training latency Day 0 (latency to enter the dark/shock compartment) (C57B/6 male mice; [3]) | Testing latency Day 1 (latency to enter the dark/shock compartment) (C57B/6 male mice; [4]) | Testing latency Day 4 (latency to enter the dark/shock compartment) (C57B/6 male mice; [4]) | Testing latency Day 7 (latency to enter the dark/shock compartment) (C57B/6 male mice; [4]) | memory for the shock-associated environment (C57B/6 male mice) | escape latency of aged rats over the training period (aged rats; 10 mg/kg twice daily for 6 days prior to and during the experiment, compared with aged controls) | effect on escape latency, pooled data of the last 3 training sessions (aged rats; 10 mg/kg twice daily, aged rats versus aged controls) | Mean Escape Latency Day 7 (aged rats; aged rats, 10 mg/kg p.o. twice daily, Day 7 (1st training day)) [s] | Mean Escape Latency Day 8 (aged rats; aged rats, 10 mg/kg p.o. twice daily, Day 8) [s] | Mean Escape Latency Day 9 (aged rats; aged rats, 10 mg/kg p.o. twice daily, Day 9) | Mean Escape Latency Day 10 (aged rats; aged rats, 10 mg/kg p.o. twice daily, Day 10) [s] | Mean Escape Latency Day 11 (aged rats; aged rats, 10 mg/kg p.o. twice daily, Day 11) [s]
N[C@@H](C(=O)N1CCCCC1)[C@@H](O)c1ccsc1 [Compound B] | 6.58 | 95.42 | 81 | 43.55 | 8.43 | 126.27 | 83.4 | 56.22 | significantly improved memory | – | – | – | – | – | – | –
N[C@@H](C(=O)N1CCCC1)[C@@H](O)c1ccncc1 [Compound C] | – | – | – | – | – | – | – | – | – | decreased the escape latency | statistically significant | 69.9 ± 4.0 | 49.3 ± 5.4 | 41.0 ± 1.8 ⋄ sec | 28.0 ± 2.2 | 30.4 ± 3.4
N[C@@H](C(=O)N1CCCC1)[C@@H](O)c1ccncc1 [Compound A] | 14.26 | 64.34 | 65.52 | 54.32 | 9.88 | 82.58 | 58.33 | 47.87 | significantly improved memory | – | – | – | – | – | – | –
